The results in this text go back to BindingDB's records for doi:10.1016/j.ejmech.2012.02.023 (Sun Yat-Sen University, 2012).

This assay in a line: Inhibition of TNF-alpha-induced NF-kappaB p65 nuclear translocation in human A549 cells after 2 hrs by fluorescence assay.

In turn, `COc1ccc(/C=C/C(=O)c2cccc(Br)c2)cc1OC` yielded an IC50 of over 50 µM.

In the case of `COc1ccc(/C=C/C(=O)c2cccc(-c3ccc(F)cc3)c2)cc1`, the IC50 was over 50 µM. Under `COc1ccc(/C=C/C(=O)c2cccc(-c3ccc(F)nc3)c2)cc1O` stands over 50 µM; under `COc1ccc(/C=C/C(=O)c2cccc(Br)c2)cc1O`, over 50 µM; under `COc1ccc(/C=C/C(=O)c2ccc(N)c(-c3ccc(OC)c(OC)c3)c2)c(OC)c1`, 1.7 µM. For the compound `O=C(/C=C/c1ccc(Cl)cc1)c1cccc(-c2cccc(F)c2)c1`, half-maximal inhibition (IC50) required 24.4 µM. Under `COc1ccc(/C=C/C(=O)c2cccc(Br)c2)cc1` stands over 50 µM; under `COc1ccc(OC)c(/C=C/C(=O)c2ccc(N)c(-c3ccc(F)cc3)c2)c1`, 10.3 µM.

With `Nc1ccc(C(=O)/C=C/c2ccc(O)c(F)c2)cc1-c1ccc(F)cc1`, the IC50 is over 50 µM. `COc1ccc(/C=C/C(=O)c2cccc(-c3cccc(F)c3)c2)cc1` had an IC50 of over 50 µM. The same measure for `COc1cc(/C=C/C(=O)c2ccc(N)c(-c3ccc(F)cc3)c2)ccc1O`: 6.83 µM; for `O=C(/C=C/c1ccccc1Br)c1cccc(-c2cccc(F)c2)c1`: 13.7 µM; for `COc1ccc(-c2cc(C(=O)/C=C/c3ccc(F)cc3)ccc2N)cc1OC`: 21.3 µM. Compound `COc1ccc(OC)c(/C=C/C(=O)c2ccc(N)c(-c3ccc(OC)c(OC)c3)c2)c1` displayed a half-inhibitory concentration (IC50) of 3.19 µM.

Regarding `COc1ccc(/C=C/C(=O)c2ccc(N)c(-c3ccc(F)cc3)c2)cc1OC`, the IC50 was over 50 µM. Under `COc1ccc(/C=C/C(=O)c2cccc(-c3ccc(F)cc3)c2)cc1OC` stands over 50 µM; under `O=C(/C=C/c1cccc(-c2ccc(F)cc2)c1)c1ccc(F)cc1`, over 50 µM; under `COc1ccccc1/C=C/C(=O)c1cccc(-c2cccc(F)c2)c1`, 35.3 µM.

`O=C(/C=C/c1cccc(Br)c1)c1cccc(-c2cccc(F)c2)c1` returned a concentration for half-maximal inhibition (IC50) of 11.2 µM.

With `COc1cc(/C=C/C(=O)c2cccc(-c3cccc(F)c3)c2)ccc1O`, the midpoint of inhibition, the IC50, lay at 12.9 µM.

With `COc1ccc(-c2cc(C(=O)/C=C/c3cccc(OC)c3OC)ccc2N)cc1OC`, the IC50 stood at 11.9 µM. The same measure for `COc1ccc(/C=C/C(=O)c2cccc(-c3cccc(F)c3)c2)cc1O`: 9.59 µM. Under `COc1ccc(/C=C/C(=O)c2ccc(N)c(-c3ccc(F)cc3)c2)cc1` stands over 50 µM; under `O=C(/C=C/c1ccc(Br)cc1)c1cccc(-c2cccc(F)c2)c1`, over 50 µM. The compound `COc1ccc(/C=C/C(=O)c2cccc(-c3cccc(F)c3)c2)cc1OC` came in with a half-maximal inhibitory concentration (IC50) of 33.4 µM. Compound `COc1cccc(/C=C/C(=O)c2cccc(-c3cccc(F)c3)c2)c1OC` gave a concentration for half-maximal inhibition (IC50) of 24.1 µM. `COc1cc(/C=C/C(=O)c2ccc(N)c(-c3ccc(F)cc3)c2)cc(Br)c1O` showed an IC50 of over 50 µM. The same measure for `COc1cc(/C=C/C(=O)c2ccc(N)c(-c3ccc(F)cc3)c2)cc(OC)c1OC`: 11.6 µM.
